# Laboratory results as given in patent US20060110481A1, “COMPOSITIONS CONTAINING VITEX AGNUS-CASTUS BERRY OIL FOR COSMECEUTICAL APPLICATIONS AND METHOD OF ISOLATION OF THE ACTIVE COMPONENT” (SAMI LABS LIMITED, priority 2004, published 2006).
# Assays:
# Type in all cases: cell-based
# E. coli = test: Disc diffusion antimicrobial study against E. coli
# Description: (§1) Procedure: Medium used for this study was reinforced clostridial Agar (RCA). The medium which was prepared and sterilized in 30 ml vials was poured into the plates inside the chamber and allowed to solidity. The culture was inoculated [0.3 ml/plate] into the plates and spread. After 30 minutes, antibacterial sterile discs [6 mm] were dispensed (2/plate), and 2.5, 5.0, 7.5 and 10 μl of the prepared samples and controls were dispensed onto the discs. The plates were incubated inside the anaerobic chamber at 37° C. for 48 hours duration.
# (§2) Antimicrobial studies of Vitex oil against general pathogenic aerobic bacteria such as E. coli and S. aureus were also carried out. E. coli was grown in lactose broth and S. aureus in nutrient broth. The method used was the same as it was followed for P. acnes. Clindac A (Clindamycin phosphate gel 1% w/w) was used as positive control. The clearence zone formed around the discs were measured and expressed in mm.
# S. aureus = test: Disc diffusion antimicrobial study against S. aureus
# Description: as §1, §2
# [1] = test system: Propionibacterium acnes ATCC 11827; test: Direct bioautography on thin layer chromatograms; conditions: TLC bioautography, P. acnes
# Description: The antibacterial effects of aqueous, methanolic Vitex agnus castus fruit extract and various extract fractions of different polarities were evaluated by bioautography technique. […] Further fractionation of oil has been done by Silica gel chromatography. Silica gel was been loaded more than half quantity of oil and fraction was collected from mobile phase, hexane, chloroform, 50% chloroform, chloroform, 10% methanol, 50% Methanol and Methanol alone. Active fraction was identified by bioautography technique.
# Direct bioautography is the technique used to localize antibacterial activity on a chromatogram. (Lund et al. 1975)
# In the present study, the separated fractions of Vitex oil were subjected to Thin Layer Chromatography on silica gel. The solvent system used was hexane: chloroform in 7:3 proportion [FIG. 1]. These chromatograms were dried in the oven at 60° C. for 1 hour to eliminate the traces of solvents. This can be visualized either by spraying the thin layer chromatogram with 5% methanolic sulphuric acid followed by heat drying or under UV light. The plates were taken to the anaerobic chamber where the bioautography experiment was carried out. The medium used was reinforced clostridial agar medium. […]
# After incubation, 1-1.2 ml of tetrazolium salt solution [2% concentration] was sprayed as a coloring reagent on the plates. […] The diameter of the zones were measured and expressed in mm.
compound,measurement,setting,value
COc1ccc(-c2oc3cc(OC)c(OC)c(O)c3c(=O)c2OC)cc1OC [Artemetin],MIC,E. coli; E. coli,1.0%
same,zone of inhibition at 0.5 % strength,"E. coli; Escherichia coli, concentration 0.5 % w/v",0 mm
same,zone of inhibition at 1 % strength,"E. coli; Escherichia coli, concentration 1 % w/v",9 mm
same,zone of inhibition at 5 % strength,"E. coli; Escherichia coli, concentration 5 % w/v",12 mm
same,MIC,S. aureus; S. aureus,1.0%
same,zone of inhibition at 0.5 % strength,"S. aureus; Staphylococcus aureus, concentration 0.5 % w/v",0 mm
same,zone of inhibition at 1 % strength,"S. aureus; Staphylococcus aureus, concentration 1 % w/v",8 mm
same,zone of inhibition at 5 % strength,"S. aureus; Staphylococcus aureus, concentration 5 % w/v",10 mm
same,Antibacterial activity by bioautography (in words),[1],Clearance zone was exhibited
